“And” between values parts separate entries of the source, which are not always exact repeats. Identical values can stand only once.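 Compound exposure: 48 hours, 5 concentrations, 96-well plates. At the GI50, growth is halved. Definition used: TGI = concentration required for complete inhibition of growth.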
Tests used:
Assay in all cases: inhibition of tumour cell growth, NCI panel, 48 h
ACHN renal = tested on: ACHN renal
CAKI-1 renal = tested on: CAKI-1 renal
CCRF-CEM leukemia = tested on: CCRF-CEM leukemia
EKVX NSCLC = tested on: EKVX NSCLC
HCT-116 colon = tested on: HCT-116 colon
HT29 colon = tested on: HT29 colon
K-562 leukemia = tested on: K-562 leukemia
OVCAR-5 ovarian = tested on: OVCAR-5 ovarian
SF-295 CNS = tested on: SF-295 CNS
SK-MEL-5 melanoma = tested on: SK-MEL-5 melanoma

Cc1nn(CNc2ccccc2C(F)(F)F)c(=S)n1/N=C/c1ccc(F)cc1
GI50 (ACHN renal): > 100 µM
TGI (ACHN renal): > 100 µM
GI50 (CAKI-1 renal): > 100 µM
TGI (CAKI-1 renal): > 100 µM
GI50 (CCRF-CEM leukemia): 14.2 µM
TGI (CCRF-CEM leukemia): > 100 µM
GI50 (EKVX NSCLC): 42 µM
TGI (EKVX NSCLC): > 100 µM
GI50 (HCT-116 colon): 91.2 µM
TGI (HCT-116 colon): > 100 µM
GI50 (HT29 colon): 42.1 µM
TGI (HT29 colon): > 100 µM
GI50 (K-562 leukemia): 89.4 µM
TGI (K-562 leukemia): > 100 µM
GI50 (OVCAR-5 ovarian): 73 µM
TGI (OVCAR-5 ovarian): > 100 µM
GI50 (SF-295 CNS): > 100 µM
TGI (SF-295 CNS): > 100 µM
GI50 (SK-MEL-5 melanoma): > 100 µM
TGI (SK-MEL-5 melanoma): > 100 µM

CC(C)(C)n1cc(-c2ccnc(NCCCNS(=O)(=O)c3ccc(Br)cc3)c2)c(-c2cccc(O)c2)n1
GI50 (ACHN renal): 1.99 µM
TGI (ACHN renal): 3.89 µM
GI50 (CAKI-1 renal): 2.16 µM
TGI (CAKI-1 renal): 5.06 µM
GI50 (CCRF-CEM leukemia): 2.26 µM
TGI (CCRF-CEM leukemia): > 100 µM
GI50 (EKVX NSCLC): 1.95 µM
TGI (EKVX NSCLC): 4.58 µM
GI50 (HCT-116 colon): 1.31 µM
TGI (HCT-116 colon): 2.6 µM
GI50 (HT29 colon): 1.42 µM
TGI (HT29 colon): 3.79 µM
GI50 (K-562 leukemia): 2.02 µM
TGI (K-562 leukemia): > 100 µM
GI50 (OVCAR-5 ovarian): 1.87 µM
TGI (OVCAR-5 ovarian): 3.5 µM
GI50 (SF-295 CNS): 1.71 µM
TGI (SF-295 CNS): 3.25 µM
GI50 (SK-MEL-5 melanoma): 1.52 µM
TGI (SK-MEL-5 melanoma): 2.87 µM

C/C(=C(/c1ccc(O)cc1)c1ccc(Cl)cc1)c1ccccc1
GI50 (ACHN renal): 0.628 µM
TGI (ACHN renal): 1.8 µM
GI50 (CAKI-1 renal): 0.781 µM
TGI (CAKI-1 renal): 2.68 µM
GI50 (CCRF-CEM leukemia): 0.764 µM
TGI (CCRF-CEM leukemia): 2.87 µM
GI50 (EKVX NSCLC): 0.698 µM
TGI (EKVX NSCLC): 2.12 µM
GI50 (HCT-116 colon): 0.543 µM
TGI (HCT-116 colon): 1.27 µM
GI50 (HT29 colon): 0.852 µM
TGI (HT29 colon): 3.17 µM
GI50 (K-562 leukemia): 0.539 µM
TGI (K-562 leukemia): 2.83 µM
GI50 (OVCAR-5 ovarian): 1.17 µM
TGI (OVCAR-5 ovarian): 2.67 µM
GI50 (SF-295 CNS): 0.603 µM
TGI (SF-295 CNS): 1.5 µM
GI50 (SK-MEL-5 melanoma): 0.454 µM
TGI (SK-MEL-5 melanoma): 0.849 µM

CC12CC=CCC1CCC1C2CCC2(C)C(c3ccc(=O)oc3)CCC12O (configuration not stated)
GI50 (ACHN renal): 0.0369 µM
TGI (ACHN renal): 0.138 µM
GI50 (CAKI-1 renal): 0.135 µM
TGI (CAKI-1 renal): 0.448 µM
GI50 (CCRF-CEM leukemia): 0.037 µM
TGI (CCRF-CEM leukemia): 0.303 µM
GI50 (EKVX NSCLC): 0.0602 µM
TGI (EKVX NSCLC): 0.212 µM
GI50 (HCT-116 colon): 0.0349 µM
TGI (HCT-116 colon): 0.143 µM
GI50 (HT29 colon): 0.0633 µM
TGI (HT29 colon): 0.768 µM
GI50 (K-562 leukemia): 0.0967 µM
TGI (K-562 leukemia): 2.27 µM
GI50 (OVCAR-5 ovarian): 0.186 µM
TGI (OVCAR-5 ovarian): 0.482 µM
GI50 (SF-295 CNS): 0.0462 µM
TGI (SF-295 CNS): 0.25 µM
GI50 (SK-MEL-5 melanoma): 0.0633 µM
TGI (SK-MEL-5 melanoma): 0.312 µM

CC1(C)C(=O)C=CC2(C)C1CC(O)C1(C)C2CCC2(C)C(c3ccoc3)OC(=O)C3OC321 (configuration not stated)
TGI (ACHN renal): 30.3 µM
TGI (CAKI-1 renal): 31.4 µM
TGI (CCRF-CEM leukemia): 57.5 µM
TGI (EKVX NSCLC): 33.2 µM
TGI (HCT-116 colon): 31.7 µM
TGI (HT29 colon): 33.7 µM
TGI (K-562 leukemia): > 100 µM
TGI (OVCAR-5 ovarian): > 100 µM
TGI (SF-295 CNS): 53.1 µM
TGI (SK-MEL-5 melanoma): 21.8 µM

COc1cc2ncnc3c2cc1OCCCCCN(C)Cc1ccc(Br)cc1N3
GI50 (ACHN renal): 0.0871 µM and 0.262 µM
TGI (ACHN renal): 37.5 µM and > 10 µM
GI50 (CAKI-1 renal): 0.288 µM and 0.375 µM
TGI (CAKI-1 renal): > 100 µM
GI50 (CCRF-CEM leukemia): 10.2 µM and > 10 µM
TGI (CCRF-CEM leukemia): > 100 µM
GI50 (EKVX NSCLC): 0.24 µM
TGI (EKVX NSCLC): > 10 µM
GI50 (HCT-116 colon): 13.9 µM and 1.48 µM
TGI (HCT-116 colon): > 100 µM
GI50 (HT29 colon): 6.34 µM and 3.35 µM
TGI (HT29 colon): > 100 µM
GI50 (K-562 leukemia): 3.98 µM and 2.93 µM
TGI (K-562 leukemia): > 100 µM
GI50 (OVCAR-5 ovarian): 12.9 µM and 1.87 µM
TGI (OVCAR-5 ovarian): > 100 µM
GI50 (SF-295 CNS): 14.1 µM and 5.13 µM
TGI (SF-295 CNS): > 100 µM
GI50 (SK-MEL-5 melanoma): 24 µM
TGI (SK-MEL-5 melanoma): > 100 µM

N=c1ccc2nc3c(cc(N)c4ccccc43)oc-2c1
GI50 (ACHN renal): 0.325 µM
TGI (ACHN renal): 1.44 µM
GI50 (CAKI-1 renal): 0.444 µM
TGI (CAKI-1 renal): 2.32 µM
GI50 (CCRF-CEM leukemia): 0.546 µM
TGI (CCRF-CEM leukemia): 3.28 µM
GI50 (EKVX NSCLC): 0.174 µM
TGI (EKVX NSCLC): 1.09 µM
GI50 (HCT-116 colon): 0.167 µM
TGI (HCT-116 colon): 0.353 µM
GI50 (HT29 colon): 0.535 µM
TGI (HT29 colon): 1.7 µM
GI50 (K-562 leukemia): 0.298 µM
TGI (K-562 leukemia): 1.18 µM
GI50 (OVCAR-5 ovarian): 0.348 µM
TGI (OVCAR-5 ovarian): 1.2 µM
GI50 (SF-295 CNS): 0.199 µM
TGI (SF-295 CNS): 0.599 µM
GI50 (SK-MEL-5 melanoma): 0.144 µM
TGI (SK-MEL-5 melanoma): 0.277 µM

Cc1cc(=O)oc2cc(OC(=O)N(CCCl)CCCl)ccc12
TGI (ACHN renal): > 100 µM
TGI (CAKI-1 renal): > 100 µM
TGI (CCRF-CEM leukemia): > 100 µM
TGI (EKVX NSCLC): > 100 µM
TGI (HCT-116 colon): > 100 µM
TGI (HT29 colon): > 100 µM
TGI (K-562 leukemia): > 100 µM
TGI (OVCAR-5 ovarian): > 100 µM
TGI (SF-295 CNS): > 100 µM
TGI (SK-MEL-5 melanoma): > 100 µM

Nc1nc(N)nc(CC(=O)O)n1
TGI (ACHN renal): > 100 µM
TGI (CAKI-1 renal): > 100 µM
TGI (CCRF-CEM leukemia): > 100 µM
TGI (EKVX NSCLC): > 100 µM
TGI (HCT-116 colon): > 100 µM
TGI (HT29 colon): > 100 µM
TGI (K-562 leukemia): > 100 µM
TGI (OVCAR-5 ovarian): > 100 µM
TGI (SF-295 CNS): > 100 µM
TGI (SK-MEL-5 melanoma): > 100 µM

CCCCCCNC(=O)Oc1ccc(/C(=C(/C)Cc2ccc(OC)cc2)c2ccc(OCCN(C)C)cc2)cc1
GI50 (ACHN renal): 5.43 µM
TGI (ACHN renal): 9.99 µM
GI50 (CAKI-1 renal): 5.39 µM
TGI (CAKI-1 renal): 9.95 µM
GI50 (CCRF-CEM leukemia): 1.35 µM
TGI (CCRF-CEM leukemia): 5.37 µM
GI50 (EKVX NSCLC): 4.91 µM
TGI (EKVX NSCLC): 10.1 µM
GI50 (HCT-116 colon): 5.52 µM
TGI (HCT-116 colon): 10.3 µM
GI50 (HT29 colon): 1.2 µM
TGI (HT29 colon): 4.58 µM
GI50 (K-562 leukemia): 1.1 µM
TGI (K-562 leukemia): 3.63 µM
GI50 (OVCAR-5 ovarian): 4.58 µM
TGI (OVCAR-5 ovarian): 8.99 µM
GI50 (SF-295 CNS): 5.2 µM
TGI (SF-295 CNS): 9.82 µM
GI50 (SK-MEL-5 melanoma): 5.46 µM
TGI (SK-MEL-5 melanoma): 10.2 µM

COC(=O)[C@]1(C)CCC[C@@]2(C)[C@@H]3C[C@@H]4[C@H]5C[C@@]3(CC[C@@H]21)C[C@@]45C
TGI (ACHN renal): 29.2 µM
TGI (CAKI-1 renal): 30 µM
TGI (CCRF-CEM leukemia): 45.7 µM
TGI (EKVX NSCLC): 31.7 µM
TGI (HCT-116 colon): 45.2 µM
TGI (HT29 colon): 27.6 µM
TGI (K-562 leukemia): 19.1 µM
TGI (OVCAR-5 ovarian): 34.2 µM
TGI (SF-295 CNS): 28.5 µM
TGI (SK-MEL-5 melanoma): 34.3 µM

COc1ccc2ccccc2c1CN1CCOCCOCCN(Cc2c(OC)ccc3ccccc23)CCOCCOCC1
TGI (ACHN renal): > 100 µM
TGI (CAKI-1 renal): > 100 µM
TGI (CCRF-CEM leukemia): > 100 µM
TGI (EKVX NSCLC): > 100 µM
TGI (HCT-116 colon): > 59 µM
TGI (HT29 colon): > 44 µM
TGI (K-562 leukemia): > 100 µM
TGI (OVCAR-5 ovarian): > 100 µM
TGI (SF-295 CNS): > 100 µM
TGI (SK-MEL-5 melanoma): > 53.6 µM

CC[C@]1(O)C[C@@H]2CN(CCc3c([nH]c4ccccc34)[C@@](C(=O)OC)(c3cc4c(cc3OC)N(C)[C@H]3[C@@](O)(C(N)=O)[C@H](O)[C@]5(CC)[C@@H]6C[C@@H]6CN6CC[C@]43[C@@H]65)C2)C1
GI50 (ACHN renal): 0.161 µM
TGI (ACHN renal): > 33.3 µM
GI50 (CAKI-1 renal): 1.12 µM
TGI (CAKI-1 renal): > 33.3 µM
GI50 (CCRF-CEM leukemia): < 0.00333 µM
TGI (CCRF-CEM leukemia): > 28.8 µM
GI50 (EKVX NSCLC): 0.0624 µM
TGI (EKVX NSCLC): > 33.3 µM
GI50 (HCT-116 colon): < 0.00333 µM
GI50 (HT29 colon): < 0.00333 µM
GI50 (K-562 leukemia): < 0.00333 µM
TGI (K-562 leukemia): > 33.3 µM
GI50 (OVCAR-5 ovarian): 0.0912 µM
TGI (OVCAR-5 ovarian): > 33.3 µM
GI50 (SF-295 CNS): 0.00441 µM
TGI (SF-295 CNS): 2.09 µM
GI50 (SK-MEL-5 melanoma): < 0.00333 µM
TGI (SK-MEL-5 melanoma): 0.0546 µM

C[C@]12CC[C@@H](OC(=O)N(CCCl)N=O)C[C@@H]1CC[C@@H]1[C@@H]2CC[C@]2(C)C(=O)CC[C@@H]12
GI50 (ACHN renal): 0.487 µM
TGI (ACHN renal): 13.8 µM
GI50 (CAKI-1 renal): 1.67 µM
TGI (CAKI-1 renal): 20.7 µM
GI50 (CCRF-CEM leukemia): 14.2 µM
TGI (CCRF-CEM leukemia): > 100 µM
GI50 (EKVX NSCLC): 6.5 µM
TGI (EKVX NSCLC): > 43.7 µM
GI50 (HCT-116 colon): 7.25 µM
TGI (HCT-116 colon): 30.5 µM
GI50 (HT29 colon): 3.26 µM
TGI (HT29 colon): 15.9 µM
TGI (K-562 leukemia): > 100 µM
GI50 (OVCAR-5 ovarian): 27.2 µM
TGI (OVCAR-5 ovarian): 57.7 µM
GI50 (SF-295 CNS): 0.308 µM
TGI (SF-295 CNS): > 51.1 µM
GI50 (SK-MEL-5 melanoma): 3.93 µM
TGI (SK-MEL-5 melanoma): 19.5 µM
